Our source for the Ki values is patent US6727264B1 (Synaptic Pharmaceutical Corporation, priority 2001, dated 2004).

Chain of rat MCH-1 (P97639 whole entry): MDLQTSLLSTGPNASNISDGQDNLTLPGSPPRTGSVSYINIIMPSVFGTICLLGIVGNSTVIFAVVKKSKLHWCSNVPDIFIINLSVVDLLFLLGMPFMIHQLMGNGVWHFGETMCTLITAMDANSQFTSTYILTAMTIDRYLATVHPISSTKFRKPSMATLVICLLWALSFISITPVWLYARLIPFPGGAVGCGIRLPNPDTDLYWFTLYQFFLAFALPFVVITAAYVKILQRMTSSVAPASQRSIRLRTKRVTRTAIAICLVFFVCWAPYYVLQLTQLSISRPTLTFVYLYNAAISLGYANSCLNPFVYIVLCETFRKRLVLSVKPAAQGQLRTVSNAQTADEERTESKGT

The test addresses rat MCH-1 (Rattus norvegicus, UniProt P97639). Nature of the test: Radioligand binding assay at cloned rat MCH1 receptor ([3H] Compound A). Also on record: host or cells: Peak rapid 293 (Peakr293) cells, transient calcium phosphate transfection, membranes. The note with it: cloned rat MCH1 receptor; 0.08 nM [3H] Compound A; Peakr293 cell membranes; read-out: Ki (nM) rMCH1.
As to `CC(C)C(=O)Nc1cccc(C2CCN(CCCCCCNC(=O)Nc3ccc(Cl)cc3Cl)CC2)c1` [Example 632], the Ki (commonly a dissociation constant, usually derived from enzyme kinetics or from competition with a known ligand) amounted to 76.6 nM.
With `CCCc1c(C(=O)NCCCCCCN2CCC(c3cccc(NC(=O)C(C)C)c3)CC2)cnn1-c1ccccc1` [Example 633] the figure was 108 nM; with `CC(C)C(=O)Nc1cccc(C2CCN(CCCCCCNC(=O)Nc3cccc4ccccc34)CC2)c1` [Example 634], 116 nM.
With `CC(C)C(=O)Nc1cccc(C2CCN(CCCCCCNC(=O)Nc3ccc(-c4ccccc4)cc3)CC2)c1` [Example 635] the figure was 73.6 nM.
With `CC(C)C(=O)Nc1cccc(C2CCN(CCCCCCNC(=O)Nc3ccc4ccccc4c3)CC2)c1` [Example 636] the figure was 40.8 nM; with `COc1ccc(S(=O)(=O)NCCCN2CCC(c3cccc(NC(=O)C(C)C)c3)CC2)cc1OC` [Example 637], 106 nM.
As to `Cc1onc(-c2ccccc2)c1C(=O)NCCCN1CCC(c2cccc(NC(=O)C(C)C)c2)CC1` [Example 638], the Ki stood at 29.8 nM.
As to `CC(C)C(=O)Nc1cccc(C2CCN(CCCNC(=O)Cc3ccc(F)cc3)CC2)c1` [Example 639], the inhibition constant (Ki) came out at 36.3 nM.
As for `CC(C)C(=O)Nc1cccc(C2CCN(CCCNS(=O)(=O)c3ccc(Cl)c([N+](=O)[O-])c3)CC2)c1` [Example 640], the figure is 11.2 nM.
With `CC(C)C(=O)Nc1cccc(C2CCN(CCCNC(=O)c3cccnc3Oc3ccc(Cl)cc3)CC2)c1` [Example 641] the figure was 14.2 nM.
With `CC(C)C(=O)Nc1cccc(C2CCN(CCCNC(=O)c3ccc(Oc4cc(Cl)cc(Cl)c4)o3)CC2)c1` [Example 642] the figure was 8.3 nM; with `CC(C)C(=O)Nc1cccc(C2CCN(CCCNS(=O)(=O)c3ccccc3F)CC2)c1` [Example 643], 130 nM; with `Cc1noc(C)c1S(=O)(=O)NCCCN1CCC(c2cccc(NC(=O)C(C)C)c2)CC1` [Example 644], 196 nM.
Consider `CC(C)C(=O)Nc1cccc(C2CCN(CCCNS(=O)(=O)c3ccc(C(C)(C)C)cc3)CC2)c1` [Example 645], for which the Ki came to 85.3 nM.
`CC(C)C(=O)Nc1cccc(C2CCN(CCCCCCN)CC2)c1` [Example 646]: the inhibition constant (Ki) turned out to be 236 nM.
With `CC(C)C(=O)Nc1cccc(C2CCN(CCNC(=O)Nc3ccc(-c4ccccc4)cc3)CC2)c1` [Example 647], the Ki was found to be 81.6 nM.
With `CC(C)C(=O)Nc1cccc(C2CCN(CCNC(=O)c3coc(Oc4cc(Cl)cc(Cl)c4)c3)CC2)c1` [Example 648] the figure was 13.4 nM; with `CC(C)C(=O)Nc1cccc(C2CCN(CCNC(=O)C(c3ccccc3)c3ccccc3)CC2)c1` [Example 649], 1.7 nM; with `CC(C)C(=O)Nc1cccc(C2CCN(CCNC(=O)c3ccc4ccccc4c3)CC2)c1` [Example 650], 21.1 nM.
For the compound `Cc1onc(-c2c(Cl)cccc2Cl)c1C(=O)NCCCCN1CCC(c2cccc(NC(=O)C(C)C)c2)CC1` [Example 651], the inhibition constant Ki is 16.7 nM.
With `CC(C)C(=O)Nc1cccc(C2CCN(CCCCNC(=O)C(c3ccccc3)c3ccccc3)CC2)c1` [Example 653] the figure was 48.8 nM.
As for `CC(C)C(=O)Nc1cccc(C2CCN(CCCCCNC(=O)C(c3ccccc3)c3ccccc3)CC2)c1` [Example 654], the figure is 43.6 nM.
Turning to `CC(C)C(=O)Nc1cccc(C2CCN(CCCCNC(=O)c3cc(Cl)cc(Cl)c3)CC2)c1` [Example 655], the Ki was found to be 31.1 nM.
As for `CC(C)C(=O)Nc1cccc(C2CCN(CCCCNC(=O)c3ccc(Oc4cc(Cl)cc(Cl)c4)o3)CC2)c1` [Example 656], the figure is 49.7 nM.
With `CC(C)C(=O)Nc1cccc(C2CCN(CCCCNC(=O)c3cccc(Cl)c3)CC2)c1` [Example 657] the figure was 77.9 nM; with `CC(C)C(=O)Nc1cccc(C2CCN(CCCCNC(=O)c3ccc(F)c(F)c3)CC2)c1` [Example 658], 12 nM.
With `CC(C)C(=O)Nc1cccc(C2CCN(CCCCNC(=O)Nc3cc(Cl)cc(Cl)c3)CC2)c1` [Example 659] the figure was 40.2 nM; with `CC(C)C(=O)Nc1cccc(C2CCN(CCCCNC(=O)Nc3ccc(-c4ccccc4)cc3)CC2)c1` [Example 660], 129 nM; with `CC(C)C(=O)Nc1cccc(C2CCN(CCCCC(=O)c3ccc([N+](=O)[O-])cc3)CC2)c1` [Example 661], 33.3 nM.
In the case of `CC(C)C(=O)Nc1cccc(C2CCN(CCCCC(=O)c3ccc(F)cc3)CC2)c1` [Example 662], the Ki is 50.3 nM.
As for `CC(C)C(=O)Nc1cccc(C2CCN(CCCCC(=O)c3ccccc3C(F)(F)F)CC2)c1` [Example 663], the figure is 73.4 nM; as for `CC(C)C(=O)Nc1cccc(C2CCN(CCCCC(=O)c3cccc(Br)c3)CC2)c1` [Example 664], 21.9 nM.
As for `CC(C)C(=O)Nc1cccc(C2CCN(CCCCC(=O)c3cccc(Cl)c3)CC2)c1` [Example 666], the figure is 21.9 nM; as for `CC(C)C(=O)Nc1cccc(C2CCN(CCCCC(=O)c3ccc(Br)cc3)CC2)c1` [Example 667], 43.9 nM.
As for `CC(C)C(=O)Nc1cccc(C2CCN(CCCCC(=O)c3ccccc3I)CC2)c1` [Example 668], the figure is 25.8 nM; as for `CC(C)C(=O)Nc1cccc(C2CCN(CCCCC(=O)c3cccc(F)c3)CC2)c1` [Example 669], 42.2 nM; as for `CC(C)C(=O)Nc1cccc(C2CCN(CCCCC(=O)c3cccc(C(F)(F)F)c3)CC2)c1` [Example 670], 57.6 nM.
For the compound `CC(C)C(=O)Nc1cccc(C2CCN(CCCCC(=O)c3ccccc3F)CC2)c1` [Example 671], the Ki amounted to 88.6 nM.
As for `CC(C)C(=O)Nc1cccc(C2CCN(CCCCC(=O)c3cccc(I)c3)CC2)c1` [Example 672], the figure is 19.7 nM.
Turning to `CC(C)C(=O)Nc1cccc(C2CCN(CCCCC(=O)c3ccccc3Cl)CC2)c1` [Example 673], the inhibition constant (Ki) turned out to be 32.5 nM.
As for `CC(C)C(=O)Nc1cccc(C2CCN(CCCCC(=O)c3ccc(C(F)(F)F)cc3)CC2)c1` [Example 674], the figure is 39.6 nM; as for `CC(C)C(=O)Nc1cccc(C2CCN(CCCCC(=O)c3ccc(Cl)cc3)CC2)c1` [Example 675], 32.6 nM; as for `CC(C)C(=O)Nc1cccc(C2CCN(CCCCC(=O)c3ccc(I)cc3)CC2)c1` [Example 676], 21.9 nM.
Take `CC(C)C(=O)Nc1cccc(C2CCN(CCCCC(=O)c3ccccc3Br)CC2)c1` [Example 677]: the Ki amounted to 52.3 nM.
As for `CC(C)C(=O)Nc1cccc(C2CCN(CCCCNC(=O)c3cccnc3Oc3ccc(Cl)cc3)CC2)c1` [Example 678], the figure is 14.7 nM.
As for `COc1ccc(C(=O)NCCCCN2CCC(c3cccc(NC(=O)C(C)C)c3)CC2)cc1OC` [Example 679], the figure is 97.9 nM; as for `Cc1onc(-c2ccccc2Cl)c1C(=O)NCCCCN1CCC(c2cccc(NC(=O)C(C)C)c2)CC1` [Example 680], 28.1 nM.
With `Cc1onc(-c2ccccc2Cl)c1C(=O)NCCCCCN1CCC(c2cccc(NC(=O)C(C)C)c2)CC1` [Example 681] the figure was 23.9 nM; with `CC(C)C(=O)Nc1cccc(C2CCN(CCCc3c(-c4ccc(C(F)(F)F)cc4)n(C)c4ccccc34)CC2)c1` [Example 682], 7.1 nM; with `CC(C)C(=O)Nc1cccc(C2CCN(CCCc3c(-c4ccc(C(F)(F)F)cc4)[nH]c4ccc(OC(F)(F)F)cc34)CC2)c1` [Example 683], 54.2 nM.
For the compound `CC(C)C(=O)Nc1cccc(C2CCN(CCCc3c(-c4ccc(C(F)(F)F)cc4)[nH]c4ccccc34)CC2)c1` [Example 684], the Ki is 5.4 nM.
